In a melting point compilation (Tetko et al.; mined from patent text by program, amines drawn as free bases though some values may be those of a salt):

`CNC(=O)C1N=C(c2ccccc2)c2cc(Cl)ccc2NC1=O` (stereo not given) gave a melting point of 294 °C.
Compound `Cc1ccc(C(O)c2cc3ccncc3[nH]2)cc1` (stereo not given) has a melting point of 78 to 82 °C.
`COc1cc(-c2nc(-c3ccc(N(C)C)cc3)c(C)o2)ccc1OC(C)=O` showed a melting point of 97 to 102 °C.
`NNc1nc2ccc(C(F)(F)F)cc2n(OCc2ccccc2)c1=O` showed a melting point of 174 to 176 °C.
For `Cn1cc(OS(C)(=O)=O)c(=O)c2ccc(C#N)cc21`, the melting point was 268 °C.
Work on `COc1cccc(CC(=O)O)c1OCCCc1ccc(OC(C)C)cc1Oc1ncc(Cl)cc1Cl` yielded a melting point of 92 to 93 °C.
`CC(C)CC1N=C(c2ccccc2)c2cc(Cl)ccc2NC1=O` (stereo not given) gave a melting point of 213 °C.
For `FC(F)(F)Oc1ccc(C2NCCc3c2[nH]c2ccccc32)cc1` (stereo not given), the melting point was 68 to 69 °C.
For `Cc1cc(S(F)(F)(F)(F)F)ccc1C(=O)NC(=N)N`, the melting point was 183 to 184 °C.
In the case of `CCCCCC(Cc1ccc(OC)c(OCCc2ccccc2)c1)NC(=O)OC(C)(C)C` (stereo not given), the melting point is reported as 91.5 to 92.5 °C.
`CC(NC(=O)Cc1cc(F)cc(F)c1)C(=O)NC1NC(=O)Cc2cc(F)ccc21` (stereo not given) showed a melting point of 195 to 200 °C.
Work on `Cc1cc(-c2ccc(Cl)c(Cl)c2)n(-c2ccc(S(N)(=O)=O)cc2)c1` yielded a melting point of 136 to 138 °C.
For `CCc1cnc2c(c1)C(=O)N(C(C)(C(N)=O)C(C)C)C2=O` (stereo not given), the melting point was 115 to 117 °C.
`CCc1ccc2oc(C(=O)Nc3ccc(-c4ccc(S(=O)(=O)NC(C(=O)OC)C(C)C)cc4)cc3)c(C)c2c1OC` (stereo not given) gave a melting point of 170 to 172 °C.
Compound `CN1CCN(C2=Nc3ccccc3-n3ccc4cc(Cl)cc2c43)CC1` has a melting point of 170 to 172 °C.
For `CCOC(=O)CCCCCOc1cc2c(c(Cl)c1Cl)C(=O)C(C)(C1CCCC1)C2` (stereo not given), the melting point was 69 to 72 °C.
Work on `COc1ccc(S(=O)(=O)N(C)C)cc1-c1ccc(CN2CCCCC2)[nH]1` yielded a melting point of 78 to 79 °C.
With `CC1ON(C)C(=O)C1=Cc1cc(C(C)(C)C)c(O)c(C(C)(C)C)c1` (stereo not given) the melting point was 147 to 150 °C.
In the case of `N#Cc1ccc2c(c1)C(C(=O)O)c1ccccc1CO2` (stereo not given), the melting point is reported as 215 to 217 °C.
Compound `O=S1(=O)c2cccc3cccc(c23)N1CCCN1CC=C(c2c[nH]c3ccc(Cl)cc23)CC1` has a melting point of 189 °C.
Compound `O=C(O)CCNC(=O)[C@H](Cc1ccc(-c2ccccc2)cc1)NCP(=O)(O)Oc1ccccc1` has a melting point of 222 to 223 °C.
`Cc1nc2c(s1)CN=C(c1ccccc1Cl)c1cc(Cl)ccc1-2` showed a melting point of 162 to 164 °C.
In the case of `COC(C)=CC(=O)Nc1cccc(OC(=O)NC2CCCCC2)c1`, the melting point is reported as 200 °C.
Compound `CN(C)CCNC(=O)c1cc(Oc2ccc3c(C(=O)Nc4cccc(C(F)(F)F)c4)cccc3c2)ccn1` has a melting point of 80 to 82 °C.
`O=Cc1ccc(OC[C@H]2CCCN2c2ncnc3[nH]cnc23)c2ccccc12` gave a melting point of 167 to 168 °C.
In the case of `S=c1[nH]c2ccc(-c3cccc(Cl)c3)cc2n1Cc1ccccc1`, the melting point is reported as 211 to 212 °C.
Work on `O=C1CC(c2ccccc2)NC(=O)C1C(=O)c1ccccc1F` (stereo not given) yielded a melting point of 115 to 116 °C.
Compound `Cc1ccc(SSc2ccc(C)cc2C(=O)Nc2ccc(S(N)(=O)=O)cc2)c(C(=O)Nc2ccc(S(N)(=O)=O)cc2)c1` has a melting point of 307 °C.
`CCc1c(N2CCC(N)CC2)c(F)cc2c(=O)c(C(=O)O)cn(C3CC3)c12` gave a melting point of 248 to 249 °C.
Work on `[O-][N+]1=C(c2ccco2)c2cc(Cl)ccc2N(CCCl)C(CCl)C1` (stereo not given) yielded a melting point of 158 to 159 °C.
For `O=S(=O)(c1ccccc1)n1ccc2c(OCC3CO3)cccc21` (stereo not given), the melting point was 96 °C.
With `CN(N)c1ccc(-c2ccc(Cl)cc2)nn1` the melting point was 170 to 172 °C.
In the case of `CCOC(=O)/C=C/c1cc(OCc2ccc(OCc3nc(-c4ccccc4)oc3C)c(OC)c2)nn1-c1ccccc1`, the melting point is reported as 121 to 122 °C.
`O=C1CCC2(CCC(=O)c3cc(Cl)ccc32)C(=O)N1` (stereo not given) showed a melting point of 282 to 284 °C.
Compound `O=C1CCCCC1c1ccncc1` (stereo not given) has a melting point of 99 to 101 °C.
With `Cc1cccc(Cl)c1NC(=O)n1nc(Oc2cccc(C(F)(F)F)c2)cc1C` the melting point was 55 to 58 °C.
`CCOC(=O)c1nc(-c2ccc([N+](=O)[O-])cc2)[nH]c1-c1ccc(N(C)C)cc1` gave a melting point of 240 to 242 °C.
Compound `C[C@@H](n1cnc2cc(N)ccc2c1=O)[C@](O)(Cn1cncn1)c1ccc(F)cc1F` has a melting point of 103 to 109 °C.
With `CCNC(=O)Cc1ccc2ccn(C3CCN(CCc4ccccc4F)CC3)c2c1` the melting point was 147 to 149 °C.
With `CCOC(=O)C(=CNc1ccnn1Cc1ccco1)C(=O)c1ccccc1` the melting point was 75 to 77 °C.
Compound `CCCCCCn1c(=O)c2c(ncn2CCCCC(C)O)n(C)c1=O` (stereo not given) has a melting point of 68 to 69 °C.
Compound `CC(=O)S[C@H]1C[C@@H](C(=O)Nc2cccc(C(=O)NS(C)(=O)=O)c2)N(C(=O)OCc2ccc([N+](=O)[O-])cc2)C1` has a melting point of 240 to 242 °C.
For `COc1ccc(C(=O)CCC2CCCCC2)c(OC)c1`, the melting point was 34 to 35 °C.
For `CC(=O)c1ccc(C(C)Oc2cncc(C(=O)Nc3ccc(C#N)cc3)c2)cc1` (stereo not given), the melting point was 181 to 183 °C.
Work on `Cc1ccc(C=C2SC(=S)N(CC(=O)O)C2=O)cc1` yielded a melting point of 245 to 250 °C.
For `CCCC(CCC)NC(=O)Nc1ccc(Cl)cc1`, the melting point was 135 to 136 °C.
Compound `CCn1ncc2c(NCc3ccc(OC)cc3)c3ccccc3nc21` has a melting point of 179 to 180 °C.
`N#Cc1ccc2c(c1)C(=O)c1cc(N3CCCCC3)ccc1C2=O` showed a melting point of 274 to 275 °C.
`O=C1N(Cc2cncc(F)c2)c2ccccc2C12COc1cc3c(cc12)OCCO3` (stereo not given) showed a melting point of 197 to 200 °C.
For `CCc1cc2c(s1)-n1c(CCNC(=O)c3cc4ccccc4[nH]3)nnc1CN=C2c1ccccc1Cl`, the melting point was 174 to 178 °C.
Compound `O=C(OCC12CCCN(CC1)C2)c1c[nH]c2ccccc12` (stereo not given) has a melting point of 184 to 185 °C.
`CC(C)C[C@H](NC(=O)OCc1ccccc1)C(=O)N[C@@H](Cc1ccccc1)C(=O)CS(C)(=O)=O` gave a melting point of 142 to 144 °C.
Work on `O=C(N[C@H](Cc1ccc(C(F)(F)F)cc1)[C@@H](O)c1ccc(F)cc1)c1cccc2c1OCC2` (racemic) yielded a melting point of 121 to 122 °C.
Work on `C=CCOc1ncc(F)c(N(N)C(=O)c2cccc(C)c2)n1` yielded a melting point of 181 to 185 °C.
With `CCOC(=O)c1cc(=O)c2c(OCC(O)COc3ccc(Cl)cc3)cccc2o1` (stereo not given) the melting point was 98 to 100 °C.
`O=C1CC(c2cccc(-n3ccnn3)c2)=Nc2cc(O)c(-c3ccccc3F)cc2N1` showed a melting point of over 250 °C.
`CCCCC(CC)C(=O)Nc1ccc(-n2nc(C(F)(F)F)cc2C(F)(F)F)cc1` (stereo not given) gave a melting point of 127 to 128 °C.
`COCC(C)c1ccc(N2Cc3ccc(OC)cc3C2=O)cc1` (stereo not given) showed a melting point of 116 to 118 °C.
For `Clc1ccccc1C1=NCc2nnc(Cc3ccccc3)n2-c2sc3c(c21)CCNC3`, the melting point was 192 °C.
Compound `COCOc1cc(CCCOc2ncccc2CC(=O)O)n(Cc2ccc(Cl)cc2Cl)n1` has a melting point of 101 to 102 °C.
`CCCCCCC1C(=O)NC(C(=O)SCCC(=O)OC)(C(O)C2C=CCCC2)C1(C)O` (stereo not given) showed a melting point of 64 °C.
`O=c1c2cc3ccccc3cc2oc2cc(OCC3CO3)cc(O)c12` (stereo not given) gave a melting point of 201 to 202 °C.
With `O=C(CBr)Nc1ccc(Cl)cc1C(=O)c1ccc(O)cc1` the melting point was 201 to 203 °C.
Work on `COc1cc(N)c(Cl)cc1C(=O)NCC12CCCN(CC1)C2` (stereo not given) yielded a melting point of 185 to 187 °C.
Compound `O=C(NNC(=O)c1ccc(Oc2ccccc2)cc1)c1ccc(O)cc1` has a melting point of 203 to 205 °C.
For `CC(=O)c1cc(Oc2ccc(NC(=O)Nc3ccccc3C(F)(F)F)cc2)ncn1`, the melting point was 149 to 151 °C.
In the case of `CC(=O)OCc1nc2cc(Cl)c(C)cc2c(=O)n1C`, the melting point is reported as 110 to 112 °C.
For `Cc1cccc2sc(-n3nc(CCCO)cc3-c3ccc(Cl)cc3)nc12`, the melting point was 112 to 114 °C.
With `CCOC(=O)c1cccc(OCCCCCCCc2cc(C)no2)c1` the melting point was 16 to 18 °C.
`CCCCC(Cn1cncn1)(C(=O)O)c1ccccc1OC` (stereo not given) gave a melting point of 198 °C.
Work on `CCOC(=O)COc1ccc(SCc2cccc3nc(-c4ccc(C(F)(F)F)cc4)sc23)cc1C` yielded a melting point of 193 to 196 °C.
With `CCc1ccc2c(c1)C=Cc1sc(C)nc1C2c1cn(C)c(=O)[nH]c1=S` (stereo not given) the melting point was 265 °C.
Work on `CCC(=O)Nc1cccc(C(=O)C=CN(C)C)c1` yielded a melting point of 106 to 108 °C.
With `CS(=O)(=O)Nc1cccc(C(=O)NCCN2CCC(Oc3ccc(Cl)c(Cl)c3)CC2)c1` the melting point was 150 to 151 °C.
`CCCCCCc1cnc(-c2ccc(OC[C@H]3CC[C@H](CCCC)CC3)cc2)nc1` gave a melting point of 99 °C.
`Cc1ccc(OC2SCC(O)C(O)C2O)cn1` (stereo not given) gave a melting point of 233 °C.
`CCCc1nc(N2CCc3ccccc3CC2)c(C#N)c(=O)n1CC(F)(F)F` showed a melting point of 104 to 106 °C.
Compound `CC1(C(=O)N2C[C@@H](O)C[C@H]2C(=O)NC2(C#N)CC2)CC1` has a melting point of 160 °C.
For `CC(C)NC(=O)Nc1ccnc(Br)c1`, the melting point was 136 to 138 °C.
In the case of `C=Cc1ccc(COc2ccc(CO)cc2)cc1`, the melting point is reported as 110 to 112 °C.
`COC(=O)CCc1cc2cc(Cl)ccc2n1S(=O)(=O)c1ccc(OC)cc1` gave a melting point of 98 to 99 °C.
With `C1=Cc2ccccc2OC1` the melting point was 48 to 51 °C.
With `O=C1CCCc2c1ccc(O)c2CCc1ccccc1` the melting point was 185 to 188 °C.
With `C=CCNc1nc(NCC=C)c2scc(Br)c2n1` the melting point was 87 to 88 °C.
In the case of `CNC(=O)c1c(C)nc(C)n1Cc1ccc2oc(-c3ccccc3NS(=O)(=O)C(F)(F)F)c(Br)c2c1`, the melting point is reported as 208 to 210 °C.
For `CCc1cc(C(=O)O)ccc1N=C1SCC2(CCCC2)N1C1CCCC1`, the melting point was 208 to 209 °C.
Compound `COc1ccc(C2CC(=O)N(Cc3ccc4cc(F)ccc4n3)C2)cc1OC1CCCC1` (stereo not given) has a melting point of 65 to 68 °C.
Compound `Fc1cc(CCl)c(F)cc1CCl` has a melting point of 62.5 to 64.5 °C.
For `O=C1CCCCC(CCc2nc3cc(Br)cnc3[nH]2)N1` (stereo not given), the melting point was 245 °C.
In the case of `CCOC(=O)c1cnc2sc(S(=O)(=O)Cc3ccccc3)nn2c1=O`, the melting point is reported as 200 to 203 °C.
With `COc1cnn(-c2cc(Cl)cc(Cl)c2)c(=O)n1` the melting point was 164 °C.
Work on `O=C(CCCCl)c1cc2c3c(c1)CCN3C(=O)CC2` yielded a melting point of 123 to 124 °C.
`Cc1ccc(C(Cl)=NO)cc1` gave a melting point of 69 to 71 °C.
With `C=C(C(=O)O)c1ccc(-c2ccccc2)c(F)c1` the melting point was 169 to 172 °C.
Work on `O=C1NCCN(c2ccc(Cc3ccc(Cl)cc3)c(Cl)c2)N1` yielded a melting point of 157 to 158 °C.
Work on `N#Cc1c(N2CCCN(c3cccc(C(F)(F)F)c3)CC2)cc[nH]c1=S` yielded a melting point of 247 to 248 °C.
`CC(=O)SCC(=O)NC(=O)Cc1ccccc1` showed a melting point of 153 to 155 °C.
For `CCCCCCCCCCCCCCCCCCNC(=O)OCC(CNS(=O)(=O)CCCCl)OC(=O)NC` (stereo not given), the melting point was 102 to 104 °C.
`OC1c2ccccc2CCC12CCCCN2` (stereo not given) gave a melting point of 125 to 127 °C.
`CC(C)c1cc2ncccc2cc1Oc1cnc(NC(CO)CO)nc1N` gave a melting point of 172 to 174 °C.
